Data as given in PubChem BioAssay AID2060907 (Molecular Pharmacology Branch, DTP, NCI, 2025).

System: 388556-164-R-J1-PDC complex spheroid viability
Assay: Anticancer human tumor 388556-164-R-J1-PDC patient-derived colon adenocarcinoma cell line growth inhibition [RAS]
Details: for IC50: curve of first compound; for viability, T/C: stronger effect = lower value
Procedure, shortened: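 Tumour cells grown as complex spheroids with HUVEC endothelial cells and mesenchymal stem cells, treated with RAS pathway inhibitor combinations. Each agent spans half-log steps from near clinical Cmax, or 10 microM where Cmax is unknown.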

[1] = second compound 0.000949 µM, first compound 0.0316 µM
[2] = second compound 0.000949 µM, first compound 0.1 µM
[3] = second compound 0.000949 µM, first compound 0.316 µM
[4] = second compound 0.000949 µM, first compound 1 µM
[5] = second compound 0.000949 µM, first compound 3.16 µM
[6] = second compound 0.000949 µM, first compound 10 µM
[7] = second compound 0.003 µM, first compound 0.0316 µM
[8] = second compound 0.003 µM, first compound 0.1 µM
[9] = second compound 0.003 µM, first compound 0.316 µM
[10] = second compound 0.003 µM, first compound 1 µM
[11] = second compound 0.003 µM, first compound 3.16 µM
[12] = second compound 0.003 µM, first compound 10 µM
[13] = second compound 0.00949 µM, first compound 0.0316 µM
[14] = second compound 0.00949 µM, first compound 0.1 µM
[15] = second compound 0.00949 µM, first compound 0.316 µM
[16] = second compound 0.00949 µM, first compound 1 µM
[17] = second compound 0.00949 µM, first compound 3.16 µM
[18] = second compound 0.00949 µM, first compound 10 µM
[19] = second compound 0.03 µM, first compound 0.0316 µM
[20] = second compound 0.03 µM, first compound 0.1 µM
[21] = second compound 0.03 µM, first compound 0.316 µM
[22] = second compound 0.03 µM, first compound 1 µM
[23] = second compound 0.03 µM, first compound 3.16 µM
[24] = second compound 0.03 µM, first compound 10 µM
[25] = second compound 0.0949 µM, first compound 0.0316 µM
[26] = second compound 0.0949 µM, first compound 0.1 µM
[27] = second compound 0.0949 µM, first compound 0.316 µM
[28] = second compound 0.0949 µM, first compound 1 µM
[29] = second compound 0.0949 µM, first compound 3.16 µM
[30] = second compound 0.0949 µM, first compound 10 µM
[31] = second compound 0.3 µM, first compound 0.0316 µM
[32] = second compound 0.3 µM, first compound 0.1 µM
[33] = second compound 0.3 µM, first compound 0.316 µM
[34] = second compound 0.3 µM, first compound 1 µM
[35] = second compound 0.3 µM, first compound 3.16 µM
[36] = second compound 0.3 µM, first compound 10 µM
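Further: spheroids exposed to compound for 7 days before readout.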
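Wherever viability, T/C is given: 100% = DMSO vehicle control luminescence.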

C[C@@H](NC(=O)c1ncnc(N)c1Cl)c1ncc(C(=O)Nc2cc(C(F)(F)F)c(Cl)cn2)s1 + CCn1c(-c2cc(N3CCN(C)CC3)cnc2C(C)OC)c2c3cc(ccc31)-c1csc(n1)CC(NC(=O)C1CC1C)C(=O)N1CCCC(N1)C(=O)OCC(C)(C)C2
IC50 (second compound 0.000949 µM): > 10 µM | IC50 (second compound 0.003 µM): > 10 µM | IC50 (second compound 0.00949 µM): > 10 µM | IC50 (second compound 0.03 µM): > 10 µM | IC50 (second compound 0.0949 µM): > 10 µM | IC50 (second compound 0.3 µM): < 0.0316 µM | viability, T/C [1]: 96.3% | viability, T/C [2]: 127% | viability, T/C [3]: 105% | viability, T/C [4]: 117% | viability, T/C [5]: 129% | viability, T/C [6]: 109% | viability, T/C [7]: 114% | viability, T/C [8]: 100% | viability, T/C [9]: 86.5% | viability, T/C [10]: 101% | viability, T/C [11]: 111% | viability, T/C [12]: 105% | viability, T/C [13]: 85% | viability, T/C [14]: 87.1% | viability, T/C [15]: 89.5% | viability, T/C [16]: 82.2% | viability, T/C [17]: 102% | viability, T/C [18]: 104% | viability, T/C [19]: 75.7% | viability, T/C [20]: 67.9% | viability, T/C [21]: 91% | viability, T/C [22]: 75.1% | viability, T/C [23]: 78.8% | viability, T/C [24]: 72.4% | viability, T/C [25]: 50.2% | viability, T/C [26]: 54.3% | viability, T/C [27]: 54.3% | viability, T/C [28]: 63.9% | viability, T/C [29]: 71% | viability, T/C [30]: 61.4% | viability, T/C [31]: 34.3% | viability, T/C [32]: 33.2% | viability, T/C [33]: 38.6% | viability, T/C [34]: 41.6% | viability, T/C [35]: 38.5% | viability, T/C [36]: 44.1%

C=CC(=O)Nc1cc(Nc2nccc(-c3cn(C)c4ccccc34)n2)c(OC)cc1N(C)CCN(C)C + CCn1c(-c2cccnc2C(C)OC)c2c3cc(ccc31)N1CCOC(CC(NC(=O)C(C(C)C)N(C)C(=O)C3(F)CCN(C(=O)C#CC(C)(C)N(C)C)CC3)C(=O)N3CCCC(N3)C(=O)OCC(C)(C)C2)C1
IC50 (second compound 0.000949 µM): > 1 µM | IC50 (second compound 0.003 µM): > 1 µM | IC50 (second compound 0.00949 µM): > 1 µM | IC50 (second compound 0.03 µM): 0.974 µM | IC50 (second compound 0.0949 µM): 0.864 µM | IC50 (second compound 0.3 µM): 0.849 µM | viability, T/C (second compound 0.000949 µM, first compound 0.00316 µM): 98.7% | viability, T/C (second compound 0.000949 µM, first compound 0.01 µM): 93.3% | viability, T/C [1]: 91.5% | viability, T/C [2]: 88.5% | viability, T/C [3]: 75.2% | viability, T/C [4]: 53.4% | viability, T/C (second compound 0.003 µM, first compound 0.00316 µM): 108% | viability, T/C (second compound 0.003 µM, first compound 0.01 µM): 108% | viability, T/C [7]: 101% | viability, T/C [8]: 83.6% | viability, T/C [9]: 73.8% | viability, T/C [10]: 53.4% | viability, T/C (second compound 0.00949 µM, first compound 0.00316 µM): 105% | viability, T/C (second compound 0.00949 µM, first compound 0.01 µM): 107% | viability, T/C [13]: 90.9% | viability, T/C [14]: 80.2% | viability, T/C [15]: 82.3% | viability, T/C [16]: 54.1% | viability, T/C (second compound 0.03 µM, first compound 0.00316 µM): 107% | viability, T/C (second compound 0.03 µM, first compound 0.01 µM): 96.2% | viability, T/C [19]: 101% | viability, T/C [20]: 88.1% | viability, T/C [21]: 70.6% | viability, T/C [22]: 49.5% | viability, T/C (second compound 0.0949 µM, first compound 0.00316 µM): 105% | viability, T/C (second compound 0.0949 µM, first compound 0.01 µM): 108% | viability, T/C [25]: 95.9% | viability, T/C [26]: 93.9% | viability, T/C [27]: 75% | viability, T/C [28]: 46% | viability, T/C (second compound 0.3 µM, first compound 0.00316 µM): 98.5% | viability, T/C (second compound 0.3 µM, first compound 0.01 µM): 89.3% | viability, T/C [31]: 89.5% | viability, T/C [32]: 81.5% | viability, T/C [33]: 69.4% | viability, T/C [34]: 46.3%

CCC(CC)c1cc(NC2CCC(N)C2)n2nccc2n1 (stereo unspecified) + CCn1c(-c2cc(N3CCN(C)CC3)cnc2C(C)OC)c2c3cc(ccc31)-c1csc(n1)CC(NC(=O)C1CC1C)C(=O)N1CCCC(N1)C(=O)OCC(C)(C)C2
IC50 (second compound 0.000949 µM): 1.85 µM | IC50 (second compound 0.003 µM): 1.81 µM | IC50 (second compound 0.00949 µM): 1.42 µM | IC50 (second compound 0.03 µM): 1.05 µM | IC50 (second compound 0.0949 µM): < 0.0316 µM | IC50 (second compound 0.3 µM): < 0.0316 µM | viability, T/C [1]: 84.5% | viability, T/C [2]: 104% | viability, T/C [3]: 93.3% | viability, T/C [4]: 90.6% | viability, T/C [5]: 14.7% | viability, T/C [6]: 10.2% | viability, T/C [7]: 89.6% | viability, T/C [8]: 85.2% | viability, T/C [9]: 79.3% | viability, T/C [10]: 81.1% | viability, T/C [11]: 20.5% | viability, T/C [12]: 9.94% | viability, T/C [13]: 82.7% | viability, T/C [14]: 77.2% | viability, T/C [15]: 73.7% | viability, T/C [16]: 65.1% | viability, T/C [17]: 15.4% | viability, T/C [18]: 11.8% | viability, T/C [19]: 56.5% | viability, T/C [20]: 66.5% | viability, T/C [21]: 57.9% | viability, T/C [22]: 51.7% | viability, T/C [23]: 10% | viability, T/C [24]: 11.5% | viability, T/C [25]: 40.5% | viability, T/C [26]: 47% | viability, T/C [27]: 47% | viability, T/C [28]: 38.4% | viability, T/C [29]: 9.16% | viability, T/C [30]: 11.8% | viability, T/C [31]: 28.7% | viability, T/C [32]: 32.5% | viability, T/C [33]: 32.4% | viability, T/C [34]: 27.8% | viability, T/C [35]: 5.58% | viability, T/C [36]: 11%
